Results reported in patent publication US6521635B1, “Inhibition of MXR transport by acridine derivatives” (priority 2000, dated 2003).
Like-named read-outs stand apart in the source and are kept apart here.

Key:
[1] = system: S1-M1-80 cells expressing MXR; assay: In vitro cytotoxicity assay (sulforhodamine B staining); type: cell-based, human; conditions: for IC50: Homo sapiens, S1-M1-80, 96 h; for RR (relative resistance): S1-M1-80 cells relative to S1 parental; for DMF +0.5 μM GF120918: IC50 without / IC50 with 0.5 μM GF120918; for DMF +1.0 μM GF120918: IC50 without / IC50 with 1.0 μM GF120918
Protocol: (§1) Reversal of resistance was determined in cytotoxicity assays using the sulforhodamine staining (Skehan et al. (1990) J. Natl. […] Briefly, cells were harvested and seeded at a density of 2000 cells/well for the colon cancer lines and 4000 cells/well for the breast cancer cell lines in flat-bottom 96-well plates. The cells were incubated for 24 h at 37° C. to allow attachment prior to addition of the drugs. […] Each concentration was tested in triplicate and the controls were done in replicates of eight. Results are representative of from three to six experiments. […] After incubation, the cells were fixed in TCA and stained with sulforhodamine B (SRB) solution (0.4% wt/vol in 1% acetic acid) (Sigma Chemical, St Louis, Mo.). Optical densities were read on a Bio-Rad plate reader (Hercules, Calif.) at an absorbance of 540 nm.

[2] = system: S1-B1-20 Pgp-overexpressing cells; assay: as above; type: cell-based, human; conditions: for IC50: Homo sapiens, S1B1-20, 96 h; for RR (relative resistance): S1-B1-20 cells relative to S1 parental; for DMF +0.5 μM GF120918 / DMF +1.0 μM GF120918 / relative resistance: S1-B1-20 cells; for DMF +0.5 μM GF120918: IC50 without / IC50 with 0.5 μM GF120918; for DMF +1.0 μM GF120918: IC50 without / IC50 with 1.0 μM GF120918
Protocol: as §1

S1 parental cells = assay: as above; type: cell-based, human; conditions: for IC50: Homo sapiens; for DMF +0.5 μM GF120918 / DMF +1.0 μM GF120918: S1 cells; for DMF +0.5 μM GF120918: IC50 without / IC50 with 0.5 μM GF120918; for DMF +1.0 μM GF120918: IC50 without / IC50 with 1.0 μM GF120918
Protocol: as §1

MCF-7 parental cells = assay: as above; type: cell-based, human; conditions: for IC50: Homo sapiens, MCF7, 96 h
Protocol: as §1

MXR (S1-M1-80 cells) = target: T1, MXR (S1-M1-80 cells) (Homo sapiens, UniProt Q9UNQ0, R482G); assay: Rhodamine efflux assay (flow cytometry); type: cell-based
T1 construct: express high levels of a mitoxantrone transporter (Miyake et al. (1999) Cancer Res.59: 8-13); endogenous in cells; host or cells: S1-M1-80 (mitoxantrone-selected subline of S1 colon carcinoma cells)
T1 sequence (Q9UNQ0 1-655 R482G): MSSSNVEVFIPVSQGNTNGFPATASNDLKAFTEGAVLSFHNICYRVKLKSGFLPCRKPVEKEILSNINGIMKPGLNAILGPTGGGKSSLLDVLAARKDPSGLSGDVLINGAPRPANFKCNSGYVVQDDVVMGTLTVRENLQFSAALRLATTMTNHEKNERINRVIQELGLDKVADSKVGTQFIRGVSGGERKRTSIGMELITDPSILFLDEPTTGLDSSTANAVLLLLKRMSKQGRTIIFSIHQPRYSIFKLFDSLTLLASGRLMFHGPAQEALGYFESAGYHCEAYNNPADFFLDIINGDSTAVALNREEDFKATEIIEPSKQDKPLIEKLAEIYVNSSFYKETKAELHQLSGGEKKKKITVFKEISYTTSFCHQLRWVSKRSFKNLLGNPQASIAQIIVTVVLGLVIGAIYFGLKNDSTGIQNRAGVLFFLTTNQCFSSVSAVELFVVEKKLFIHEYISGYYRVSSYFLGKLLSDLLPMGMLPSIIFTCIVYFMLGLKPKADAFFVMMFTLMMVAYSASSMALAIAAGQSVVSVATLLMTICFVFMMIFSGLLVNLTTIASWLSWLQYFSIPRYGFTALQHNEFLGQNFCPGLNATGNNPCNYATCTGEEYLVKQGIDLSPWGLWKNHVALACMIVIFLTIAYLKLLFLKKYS
Protocol: To provide confirmation, rhodamine efflux assays were performed. […] The results are depicted in FIG. 2.

[3] = system: S1 parental cells (low endogenous level of Pgp); assay: Rhodamine efflux assay (flow cytometry); type: cell-based, human
Protocol: The rhodamine and calcein efflux assays were performed as previously described with minor modifications (Lee et al. (1994) Mol. Pharmacol. 46: 627-638; Versantvoort et al. (1995) Int. J. Cancer 63: 855-862.) Suspensions of logarithmic phase cells were obtained from tissue culture flasks by trypsinization and transferred into round-bottom 96-well plates. […] After the efflux period, the cells were washed with DPBS and placed on ice. A FACSort flow cytometer (Becton Dickinson, San Jose, Calif.) with a 488-nm argon laser was used to analyze the samples. Rhodamine 123 or calcein fluorescence was collected after a 530 nm bandpass filter. A minimum of 10,000 events was collected per sample and the samples were gated on forward scatter versus side scatter to exclude clumps and debris; dead cells were excluded based on propidium iodide staining.
To provide confirmation, rhodamine efflux assays were performed. […] After an accumulation and efflux period, rhodamine fluorescence was quantitated by flow cytometric analysis. The results are depicted in FIG. 2. […] PSC 833, a cyclosporin-D analog, was used as a positive control for Pgp antagonism.

[4] = S1-M1-80 cells, chemotherapy drug without GF120918, 96 h, read-out: IC50
[5] = read-out: IC50 +0.5 μM GF120918, S1-M1-80 cells, with 0.5 μM GF120918, 96 h
[6] = read-out: IC50 +0.5 μM GF120918
[7] = read-out: IC50 +1.0 μM GF120918
[8] = 96 h, read-out: IC50 +0.5 μM GF120918
[9] = 96 h, read-out: IC50 +1.0 μM GF120918

Compound	IC50 [1, 4]	IC50 [1, 5]	RR (relative resistance) [1]	DMF +0.5 μM GF120918 ([1]; S1-M1-80 cells)	DMF +1.0 μM GF120918 ([1]; S1-M1-80 cells)	IC50 [2, 6]	IC50 [2, 7]	IC50 ([2]; read-out: IC50)	RR (relative resistance) [2]	DMF +0.5 μM GF120918 [2]	DMF +1.0 μM GF120918 [2]	IC50 (S1 parental cells; [8])	IC50 (S1 parental cells; [9])	IC50 (S1 parental cells; 96 h, read-out: IC50)	DMF +0.5 μM GF120918 (S1 parental cells)	DMF +1.0 μM GF120918 (S1 parental cells)	relative resistance ([1]; S1-M1-80 cells)	relative resistance [2]	further results
O=C1c2c(O)ccc(O)c2C(=O)c2c(NCCNCCO)ccc(NCCNCCO)c21 [Mitoxantrone]	222000 ± 101000 nM	1570 ± 950 nM	35806	141	1850	15 ± 5.6 nM	13 ± 6.6 nM	410 ± 610 nM	66	27	31	5.3 ± 4.3 nM	5.2 ± 4.4 nM	6.2 ± 4.7 nM	1.2	1.2	–	–	IC50 ([1]; read-out: IC50 +1.0 μM GF120918, S1-M1-80 cells, with 1.0 μM GF120918, 96 h): 120 ± 110 nM; IC50 (MCF-7 parental cells; [6]): 5.7 ± 7.3 nM; IC50 (MCF-7 parental cells; [7]): 5.6 ± 8.1 nM; IC50 (MCF-7 parental cells; read-out: IC50): 25 ± 19 nM; DMF (Dose Modifying Factor) +0.5 μM GF120918 (MCF-7 parental cells; MCF-7 cells, IC50 without / IC50 with 0.5 μM GF120918): 4.4; DMF +1.0 μM GF120918 (MCF-7 parental cells; MCF-7 cells, IC50 without / IC50 with 1.0 μM GF120918): 4.4
C/C=C/C[C@@H](C)C(=O)[C@H]1C(=O)N[C@@H](C(C)C)C(=O)N(C)CC(=O)N(C)[C@@H](CC(C)C)C(=O)N[C@@H](C(C)C)C(=O)N(C)[C@@H](CC(C)C)C(=O)N[C@@H](C)C(=O)N[C@H](C)C(=O)N(C)[C@@H](CC(C)C)C(=O)N(C)[C@@H](CC(C)C)C(=O)N(C)[C@@H](C(C)C)C(=O)N1C [PSC 833]	–	–	–	–	–	–	–	–	–	–	–	–	–	–	–	–	–	–	antagonism of MXR (MXR (S1-M1-80 cells)): not an effective antagonist for MXR; effect on rhodamine accumulation and efflux [3]: small increase in rhodamine accumulation and a decrease in efflux
CC(=O)O[C@H]1C(=O)[C@@]2(C)[C@H]([C@H](OC(=O)c3ccccc3)[C@]3(O)C[C@H](OC(=O)[C@H](O)[C@@H](NC(=O)c4ccccc4)c4ccccc4)C(C)=C1C3(C)C)[C@]1(OC(C)=O)CO[C@@H]1C[C@@H]2O [paclitaxel]	–	–	–	–	–	–	–	–	–	–	–	–	–	–	–	–	1.5 fold	200 fold	–
CC[C@@]1(O)C(=O)OCc2c1cc1n(c2=O)Cc2cc3c(CN(C)C)c(O)ccc3nc2-1 [topotecan]	12000 ± 5000 nM	2000 nM	334	6	23	40 nM	27 ± 5 nM	160 ± 50 nM	4.4	4	5.9	34 nM	25 ± 7 nM	36 ± 8.5 nM	1.0	1.4	334 fold	4.4 fold	IC50 (S1 parental cells; read-out: IC50): 36 nM
